Consider two molecules from paper PMC5608406, “In vivo activation of latent HIV with a synthetic bryostatin analog effects both latent cell "kick" and "kill" in strategy for virus eradication” (PLoS Pathogens, 2017).

In data set [1] the test system is primary CD4+ T cells. Kind of data set: Induction of CD69 expression in primary CD4+ T cells. Type of data set: cell-based, human. To be noted: 24h. How it is done: Primary human cells from HIV seronegative individuals were cultured in “RF10 medium” consisting of RPMI 1640 medium supplemented with 10% fetal bovine serum (FBS, Omega Scientific), 100 U/mL of penicillin, and 100 μg/mL of streptomycin (Invitrogen). PBMCs were isolated using Ficoll-Paque Plus separation (GE Healthcare). Primary CD4+ T cells were separated from PBMCs by negative immunomagnetic selection using the CD4+ T cell Isolation Kit (Miltenyi Biotec) according to the manufacturer’s instructions. Cells were then exposed to compound for 24 hours before staining and flow cytometric analysis of CD69 levels. Compound incubations were performed by seeding 10^5 cells/well in 100 μL of RF10 media containing the appropriate concentration of compound in wells of a v-bottomed 96-well plate. Bryostatin 1 (Tocris bioscience) and Prostratin (LC Laboratories) were obtained commercially, and bryologs or prostratin analogs were synthesized as previously described.
For human PBMC CD69 induction experiments, cells were stained with CD69-ECD (Beckman Coulter 6607110). During staining, cells were incubated at 4 °C for 20 minutes, washed with 2% FBS in PBS, and then resuspended in 2% paraformaldehyde. Stained samples were stored at 4 °C.
Flow cytometry samples were analyzed using a Cytomics FC 500 (Beckman Coulter) or a LSR Fortessa (BD Biosciences) flow cytometer. Data were analyzed using FlowJo (v7) software.

In data set [2] the test system is murine splenocytes. Kind of data set: In vivo bioactivity (CD69/CD25 in splenocytes) in C57/bl6 mice. As to conditions: intraperitoneal injection, 24h post-injection, maximum over ascending doses. As for the experimental part: C57/bl6 mice were obtained from the UCLA Department of Radiation Oncology. Compounds were suspended in DMSO and then further diluted in RF10 media to produce a final volume of 500 μL (containing a maximum 4% DMSO). These 500 μL volumes were administered to mice by intraperitoneal injection. Mice were monitored for acute toxicities and then sacrificed at the indicated times. Spleens were removed and disaggregated using a steel mesh, and then filtered through a 40 μm filter to produce a single-cell suspension. The resultant splenocytes were then stained for flow cytometry to analyze surface expression of relevant markers.
During standard flow cytometry staining, samples of 10^5 cells were suspended in 50 μL of a 1:1 dilution of phosphate buffered saline (PBS):Human AB serum (Sigma). Staining of C57/bl6 mouse splenocytes was performed by adding the following anti-mouse fluorescent conjugated antibodies: CD3-Fluorescein isothiocyanate (FITC, eBioscience 11-0032-82); CD69-Phycoerythrin (PE, eBioscience 12-0691-83); and CD4-Allophycocyanin (APC, eBioscience 17-0041-83). In some experiments CD4-APC was replaced with CD25-APC (eBioscience 17-0251-82) and CD4-Phycoerythrin Cyanin 7 (PC7, eBioscience 25-0041-82). For humanized mouse studies, PBMC and splenocytes from BLT mice were stained with anti-mouse CD45-Alexa 700 (Biolegend 103128) and the following anti-human antibodies: CD45-e450 (eBioscience 48-0459-42); CD3-APC-780 (eBioscience; 47-0038-42); CD4-V500 (BD biosciences; 560768); CD8-Peridinin chlorophyll protein (PerCP)-710 (eBioscience 46-0087-42); CD25-PE (Beckman IM0479U); CD69-APC (Biolegend 310910); CD14-PE-Cy7 (Biolegend 325618). Cells were separately stained for anti-human CD45 e450- (eBioscience 48-0459-42) and anti-HA-Biotin PE (Roche 12158167001) followed by a secondary Streptavidin, R-Phycoerythrin Conjugate (Invitrogen s866) stain. This two-step stain was performed by incubating 1-2x10^6 cells at 4°C for 20–30 min, washing with 2% FBS in PBS, then adding the secondary stain, incubating again at 4°C for 20–30 min, and washing with 2% FBS in PBS before fixation with 2% paraformaldehyde. In some experiments, cell death was also evaluated by GHOST Red 780 (Tonbo Biosciences 13–0865) or Zombie Yellow (Biolegend 423104) stains. For this procedure, 10^6 cells were suspended in 100 μL PBS, and then the Zombie yellow and GHOST Red 780 dyes added. Cells were incubated for 20 min at room temperature in the dark and then washed twice with 2% FBS in PBS. Cells were then fixed with 2% paraformaldehyde and incubated for 20 min in the dark. In some experiments cells were then washed with 2% FBS in PBS, resuspended in 1:1 PBS:Human AB serum and then stained for human CD45 and HA, CD3-PE-Cy5 (Biolegend 300310), CD4-ECD (Beckman 6604727), CD8 Per-CO710 (eBioscience 46-0087-42) and CD3-APC (Cell signaling 9602S) as described above.

The conditions of data set [3]: phase I, ART-treated patients; cited from earlier work.

The structures appear in SMILES notation.

Take `CCC/C=C/C=C/C(=O)O[C@H]1/C(=C/C(=O)OC)C[C@H]2C[C@H]([C@@H](C)O)OC(=O)C[C@H](O)C[C@@H]3C[C@H](OC(C)=O)C(C)(C)[C@](O)(C[C@@H]4C/C(=C/C(=O)OC)C[C@H](/C=C/C(C)(C)[C@]1(O)O2)O4)O3` [bryostatin 1]: the CD69 expression result in data set [1] was “can each induce expression”. In addition, in data set [2], the “CD4+ splenocytes expressing CD69” value is reported as “approximately 60%”. Further, in data set [3], the safety in patients result is reported as “safe at low doses”.

For the molecule `CC(=O)O[C@@]12C[C@@H](C)[C@@]3(O)[C@@H](C=C(CO)C[C@]4(O)C(=O)C(C)=C[C@@H]34)[C@@H]1C2(C)C` [Prostratin], the CD69 expression result in data set [1] is on record as “can each induce expression”.
